Literature values, collected in patent publication US20210369631A1, “A LIPID-POLYMER HYBRID NANOPARTICLE” (NANOBRID INNOVATIONS PRIVATE LIMITED, priority 2019, published 2021).

| Structure (SMILES) | log P |
| --- | --- |
| CCC(=O)O[C@]1(C(=O)CCl)[C@@H](C)C[C@H]2[C@@H]3CCC4=CC(=O)C=C[C@]4(C)[C@@]3(F)[C@@H](O)C[C@@]21C [clobetasol propionate] | 3.49 |
| O=C(CCCCCCC(=O)Nc1ccccc1)NO [Vorinostat] | 1.44 |
| COC1=C(OC)C(=O)C(C/C=C(\C)CC/C=C(\C)CC/C=C(\C)CC/C=C(\C)CC/C=C(\C)CC/C=C(\C)CC/C=C(\C)CC/C=C(\C)CC/C=C(\C)CCC=C(C)C)=C(C)C1=O [coenzyme Q10] | 10 |
